Laboratory results taken from patent publication US20230365541A1, “INHIBITOR OF ENHANCER OF ZESTE HOMOLOGUE 2, AND USE THEREOF” (HAISCO PHARMACEUTICALS PTE. LTD., priority 2020, published 2023).
Read-outs that look alike come from different tables or passages of the source. Blank lines part the entries; values can stand above or below the molecule they belong to.

What was measured:
[1] = molecular target: EZH2 (Homo sapiens (Human), UniProt Q15910); assay: Test method for EZH2 enzyme activity; assay type: biochemical; details: H3K27(21-44) and [3H]-SAM
EZH2, sequence (Q15910 other isoform, or with tags, fused parts or gaps isoform Q15910-2): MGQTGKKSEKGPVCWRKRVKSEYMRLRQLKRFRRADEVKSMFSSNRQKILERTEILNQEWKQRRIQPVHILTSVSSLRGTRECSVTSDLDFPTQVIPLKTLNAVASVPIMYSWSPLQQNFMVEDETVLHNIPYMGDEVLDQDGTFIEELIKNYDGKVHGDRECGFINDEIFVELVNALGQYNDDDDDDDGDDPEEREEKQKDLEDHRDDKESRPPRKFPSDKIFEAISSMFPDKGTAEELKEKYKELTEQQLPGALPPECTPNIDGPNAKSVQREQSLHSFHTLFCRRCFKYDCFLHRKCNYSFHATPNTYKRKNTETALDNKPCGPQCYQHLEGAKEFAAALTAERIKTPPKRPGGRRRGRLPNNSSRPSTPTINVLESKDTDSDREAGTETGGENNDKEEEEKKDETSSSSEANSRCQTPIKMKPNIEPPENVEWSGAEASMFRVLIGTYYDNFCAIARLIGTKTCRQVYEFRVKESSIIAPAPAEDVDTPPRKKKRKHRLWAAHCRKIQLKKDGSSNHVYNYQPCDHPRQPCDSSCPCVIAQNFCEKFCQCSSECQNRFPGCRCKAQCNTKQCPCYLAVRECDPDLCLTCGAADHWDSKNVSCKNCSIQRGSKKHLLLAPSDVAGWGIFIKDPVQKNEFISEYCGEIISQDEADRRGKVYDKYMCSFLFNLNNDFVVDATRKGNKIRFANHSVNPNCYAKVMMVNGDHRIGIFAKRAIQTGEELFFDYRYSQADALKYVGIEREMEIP
EZH2, sequence (O75530 2-441 partner): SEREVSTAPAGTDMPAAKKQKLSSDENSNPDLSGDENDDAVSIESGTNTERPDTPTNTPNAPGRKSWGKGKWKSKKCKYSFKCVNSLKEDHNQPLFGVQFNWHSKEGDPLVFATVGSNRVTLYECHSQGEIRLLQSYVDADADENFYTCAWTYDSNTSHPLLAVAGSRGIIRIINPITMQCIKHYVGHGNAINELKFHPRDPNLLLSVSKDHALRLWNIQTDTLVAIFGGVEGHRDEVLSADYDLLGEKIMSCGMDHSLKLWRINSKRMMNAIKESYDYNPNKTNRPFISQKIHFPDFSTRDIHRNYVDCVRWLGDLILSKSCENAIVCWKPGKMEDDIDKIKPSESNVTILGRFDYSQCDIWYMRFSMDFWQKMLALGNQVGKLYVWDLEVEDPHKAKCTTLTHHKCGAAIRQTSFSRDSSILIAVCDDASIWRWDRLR
EZH2, sequence (Q15022 2-739 partner): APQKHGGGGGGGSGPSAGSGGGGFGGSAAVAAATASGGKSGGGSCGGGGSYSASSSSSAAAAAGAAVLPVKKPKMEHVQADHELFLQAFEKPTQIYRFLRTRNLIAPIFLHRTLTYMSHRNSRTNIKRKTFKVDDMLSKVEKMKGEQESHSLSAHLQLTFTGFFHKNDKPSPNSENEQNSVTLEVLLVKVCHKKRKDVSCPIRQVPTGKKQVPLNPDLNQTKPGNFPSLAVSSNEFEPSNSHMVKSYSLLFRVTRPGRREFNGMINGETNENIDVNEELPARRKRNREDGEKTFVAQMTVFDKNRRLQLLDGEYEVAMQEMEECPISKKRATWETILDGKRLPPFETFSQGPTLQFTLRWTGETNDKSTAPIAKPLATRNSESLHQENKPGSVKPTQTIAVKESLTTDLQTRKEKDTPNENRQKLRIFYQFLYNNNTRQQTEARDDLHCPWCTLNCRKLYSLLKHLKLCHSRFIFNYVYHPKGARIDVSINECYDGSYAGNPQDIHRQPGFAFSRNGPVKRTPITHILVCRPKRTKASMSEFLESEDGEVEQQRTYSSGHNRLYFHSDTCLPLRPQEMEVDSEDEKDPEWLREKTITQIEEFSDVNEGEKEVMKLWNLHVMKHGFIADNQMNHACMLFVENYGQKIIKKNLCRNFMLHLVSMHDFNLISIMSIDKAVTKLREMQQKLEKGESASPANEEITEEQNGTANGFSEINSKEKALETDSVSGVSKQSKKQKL
EZH2, sequence (Q09028 2-425 partner): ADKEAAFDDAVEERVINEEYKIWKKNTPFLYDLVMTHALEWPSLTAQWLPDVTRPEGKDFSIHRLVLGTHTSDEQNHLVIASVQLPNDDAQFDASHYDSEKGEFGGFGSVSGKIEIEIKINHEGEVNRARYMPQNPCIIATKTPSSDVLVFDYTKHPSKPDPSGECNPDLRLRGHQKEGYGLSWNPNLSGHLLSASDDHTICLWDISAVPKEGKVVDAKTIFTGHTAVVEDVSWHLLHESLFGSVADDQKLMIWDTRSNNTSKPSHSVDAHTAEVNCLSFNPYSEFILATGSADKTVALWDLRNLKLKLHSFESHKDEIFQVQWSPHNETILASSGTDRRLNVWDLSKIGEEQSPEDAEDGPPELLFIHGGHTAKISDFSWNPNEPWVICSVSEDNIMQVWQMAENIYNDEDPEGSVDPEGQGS
EZH2, sequence (Q6ZN18 whole entry partner): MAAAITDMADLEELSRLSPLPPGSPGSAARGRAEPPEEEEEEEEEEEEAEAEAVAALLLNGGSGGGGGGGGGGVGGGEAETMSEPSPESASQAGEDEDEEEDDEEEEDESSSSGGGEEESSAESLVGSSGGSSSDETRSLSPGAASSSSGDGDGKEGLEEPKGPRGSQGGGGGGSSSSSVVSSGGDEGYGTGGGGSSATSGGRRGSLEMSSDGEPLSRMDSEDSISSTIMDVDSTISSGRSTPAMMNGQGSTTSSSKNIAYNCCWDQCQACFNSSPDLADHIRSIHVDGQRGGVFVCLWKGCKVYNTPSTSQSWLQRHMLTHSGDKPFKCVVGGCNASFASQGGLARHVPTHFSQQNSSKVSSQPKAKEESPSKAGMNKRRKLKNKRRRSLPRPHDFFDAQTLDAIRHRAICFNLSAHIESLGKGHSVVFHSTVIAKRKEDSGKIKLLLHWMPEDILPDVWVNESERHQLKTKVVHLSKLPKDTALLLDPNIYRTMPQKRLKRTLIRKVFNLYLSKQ
Description: The compounds were dissolved in DMSO, formulated into 10 mM solutions and serially diluted with DMSO to obtain 100-fold the final concentration. 200 nL of the solutions of the compounds was transferred to a 384-well plate (Perkin Elmer, Cat. No. 6007299) by using Echo550. EZH2 (BPS, Cat. No. 51004) was diluted with 1×assay buffer (50 mM Tris-HCl 9.0, 0.01% Tween-20, 1 mM DTT) to 2-fold the final concentration (EZH2: 3 nM). A mixed solution of H3K27(21-44) and [3H]-SAM (PerkinElmer, Lot. No. 2146246) (H3K27(21-44): 200 nM, [3H]-SAM: 100 nM) was formulated. The EZH2 diluted solution was taken and added to the 384-well plate at 10 μL/well (10 μL of 1×assay buffer was added in the control group). The plate was sealed and then incubated at room temperature for 15 minutes. 10 μL of the mixed solution of H3K27 (21-44) and [3H]-SAM was added to each well. The plate was sealed and then incubated at room temperature for 60 minutes. 50 μM of SAM (Sigma, Cat. No. A7007) was formulated at low temperature and added to the 384-well plate at 10 μL/well. The sample was taken at 25 μL/well, transferred to a flashplate and incubated at room temperature for at least 1 hour. The flashplate was washed 3 times with a plate washing liquid (dH2O+0.1% Tween-20) and read by using Microbeta. The inhibition rate was calculated in Excel according to: inhibition rate (%)=(maximum valuepositive control−detection signal value)/(maximum valuepositive control−minimum valuenegative control)*100, and IC50 values were fitted by using XL-Fit.

[2] = system: SU-DHL-6 cells; assay: SU-DHL-6 cell proliferation test; assay type: cell-based, human; details: incubated for 14 days
Description: SU-DHL-6 cells are human B-cell lymphoma cell lines purchased from ATCC and cultured under the following conditions: RPMI-1640+10% FBS+1% double antibody in a 37° C., 5% CO2 incubator. The cells were plated in a 12-well plate, with a cell concentration of 1×10^5 cells/mL. After the cells were plated, the compounds at different concentrations were added and cultured in a 37° C., 5% CO2 incubator. The cells were counted every 3-4 days (Countstar automated cell counter), centrifuged to remove the supernatant, re-diluted to 1×10^5 cells/mL and plated, and then the compounds at different concentrations were further added. After the mixture was incubated for 14 days and the cells were counted, the test was terminated, and the IC50 values were calculated by using the Origen9.2 software.

[3] = Pharmacokinetic experiment in mice (intravenous 5 mg/kg or intragastric 30 mg/kg); assay type: in vivo
Description: The administration was performed according to table 5.
The concentrations of the compounds in EDTA-K2 anticoagulant plasma were determined by the LC-MS/MS method. The linear range of the standard curve of the compounds is 2-2000 ng/mL. After subjected to precipitating proteins with acetonitrile, the samples were analyzed by LC-MS/MS. The standard curve was subjected to a regression calculation using the weighted least square method (W=1/X^2), and quantified by calculating the ratio of test compound peak area to internal standard peak area.
• (1) except to the blank sample, 400 μL of internal standard working solution (Verapamil internal standard concentration in precipitant acetonitrile is 10.0 ng/mL) was added to a 1.5 mL centrifuge tube containing 30 μL of standard curve samples and quality control samples; • 200 μL of internal standard working solution (Verapamil internal standard concentration in precipitant acetonitrile is 10.0 ng/mL) was added to a 1.5 mL centrifuge tube containing 15 μL of unknown samples; • and 400 μL of acetonitrile was added to the blank sample; • (2) the mixture was mixed evenly for about 1 min in a vortex mixer; • (3) centrifugation was carried out at 10000 rpm at 4C for 10 mi; • (4) 175 μL of the supernatant was transferred to a new 96-well polypropylene plate, and then the plate was sealed and placed in a 10° C. sample tray for injection.

[4] = ICR mice, IV 5 mg/kg, listed as Compound 44, Isomer 2
[5] = ICR mice, PO 30 mg/kg, listed as Compound 44, Isomer 2
[6] = ICR mice, PO 30 mg/kg, listed as Compound 53, Isomer 1
[7] = ICR mice, IV 5 mg/kg, listed as Compound 53, Isomer 2
[8] = ICR mice, PO 30 mg/kg, listed as Compound 53, Isomer 2

- IC50 [1]: 0.55 nM
- IC50 ([2]; Homo sapiens, SU-DHL-6, 336 h): 8.96 nM
Compound: CNC(=O)N1CC2CCC(C1)C2[C@]1(C)Oc2c(Cl)cc(C(=O)NCc3c(SC)cc(C)[nH]c3=O)c(C)c2O1 (mixture of isomers) [Compound 36, 8-(7-chloro-2,4-dimethyl-5-(((6-methyl-4-(methylthio)-2-oxo-1,2-dihydropyridin-3-yl)methyl)carbamoyl)benzo[d][1,3]dioxol-2-yl)-N-methyl-3-azabicyclo[3.2.1]octane-3-carboxamide]

- IC50 [1]: 0.67 nM
- IC50 ([2]; Homo sapiens, SU-DHL-6, 336 h): 13.1 nM
Compound: CSc1cc(C)[nH]c(=O)c1CNC(=O)c1cc(Cl)c2c(c1C)OC(C)(C1CCC(N3CC(N(C)C)C3)CC1)O2 (single isomer, unassigned) [Compound 1, isomer 1, 7-chloro-2-(4-(3-(dimethylamino)azetidin-1-yl)cyclohexyl)-2,4-dimethyl-N-((6-methyl-4-(methylthio)-2-oxo-1,2-dihydropyridin-3-yl)methyl)benzo[d][1,3]dioxole-5-carboxamide]

- IC50 [1]: 0.46 nM
- IC50 ([2]; Homo sapiens, SU-DHL-6, 336 h): 10.2 nM
Compound: CSc1cc(C)[nH]c(=O)c1CNC(=O)c1cc(Cl)c2c(c1C)OC(C)([C@H]1CC[C@@H](NC3CC(F)(F)C3)CC1)O2 (single isomer, unassigned) [Compound 4, isomer 1, 7-chloro-2-(4-((3,3-difluorocyclobutyl)amino)cyclohexyl)-2,4-dimethyl-N-((6-methyl-4-(methylthio)-2-oxo-1,2-dihydropyridin-3-yl)methyl)benzo[d][1,3]dioxole-5-carboxamide]

- IC50 [1]: 0.56 nM
- IC50 [2]: 9.79 nM
Compound: CSc1cc(C)[nH]c(=O)c1CNC(=O)c1cc(Cl)c2c(c1C)OC(C)([C@H]1CC[C@@H](NC3CC(F)(F)C3)CC1)O2 (single isomer, unassigned) [Compound 4, isomer 2, 7-chloro-2-(4-((3,3-difluorocyclobutyl)amino)cyclohexyl)-2,4-dimethyl-N-((6-methyl-4-(methylthio)-2-oxo-1,2-dihydropyridin-3-yl)methyl)benzo[d][1,3]dioxole-5-carboxamide]

- IC50 [1]: 0.57 nM
- IC50 [2]: 27.1 nM
Compound: CSc1cc(C)[nH]c(=O)c1CNC(=O)c1cc(Cl)c2c(c1C)OC(C)([C@H]1CC[C@@H](N[C@H]3C[C@H](F)C3)CC1)O2 (single isomer, unassigned) [Compound 34, isomer 2, 7-chloro-2-(4-((trans-3-fluorocyclobutyl)amino)cyclohexyl)-2,4-dimethyl-N-((6-methyl-4-(methylthio)-2-oxo-1,2-dihydropyridin-3-yl)methyl)benzo[d][1,3]dioxole-5-carboxamide]

- IC50 [1]: 0.42 nM
- IC50 [2]: 28.2 nM
Compound: CSc1cc(C)[nH]c(=O)c1CNC(=O)c1cc(Cl)c2c(c1C)OC(C)([C@H]1CC[C@@H](c3ccccn3)CC1)O2 (single isomer, unassigned) [Compound 39, isomer 1, 7-chloro-2,4-dimethyl-N-((6-methyl-4-(methylthio)-2-oxo-1,2-dihydropyridin-3-yl)methyl)-2-(4-(pyridin-2-yl)cyclohexyl)benzo[d][1,3]dioxole-5-carboxamide]

- IC50 [1]: 0.58 nM
- IC50 [2]: 63.2 nM
Compound: CSc1cc(C)[nH]c(=O)c1CNC(=O)c1cc(Cl)c2c(c1C)OC(C)([C@H]1CC[C@@H](c3ccccn3)CC1)O2 (single isomer, unassigned) [Compound 39, isomer 2, 7-chloro-2,4-dimethyl-N-((6-methyl-4-(methylthio)-2-oxo-1,2-dihydropyridin-3-yl)methyl)-2-(4-(pyridin-2-yl)cyclohexyl)benzo[d][1,3]dioxole-5-carboxamide]

- IC50 [1]: 0.52 nM
- IC50 ([2]; Homo sapiens, SU-DHL-6, 336 h): 35.3 nM
Compound: CSc1cc(C)[nH]c(=O)c1CNC(=O)c1cc(Cl)c2c(c1C)OC(C)([C@H]1CC[C@H](N[C@H]3C[C@@H](F)C3)CC1)O2 (single isomer, unassigned) [Compound 41, isomer 1, 7-chloro-2-(4-((cis-3-fluorocyclobutyl)amino)cyclohexyl)-2,4-dimethyl-N-((6-methyl-4-(methylthio)-2-oxo-1,2-dihydropyridin-3-yl)methyl)benzo[d][1,3]dioxole-5-carboxamide]

- IC50 [1]: 0.51 nM
- AUC [3, 4]: 0.713 µg·h/mL
- C0 [3, 4]: 2.482 µg/mL
- T1/2 [3, 4]: 2.33 h
- F % ([3]; ICR mice, PO 30 mg/kg vs IV 5 mg/kg, listed as Compound 44, Isomer 2): 27.4%
- AUC [3, 5]: 0.917 µg·h/mL
- Cmax [3, 5]: 0.463 µg/mL
- T1/2 [3, 5]: 1.81 h
- Tmax ([3]; male, ICR, mouse, plasma, po, 30 mg/kg, PO 30 mg/kg, read-out: Tmax): 1 h
Compound: [2H]C([2H])(NC(=O)c1cc(Cl)c2c(c1C)OC(C)([C@H]1CC[C@@H](NC3CC(F)(F)C3)CC1)O2)c1c(SC)cc(C)[nH]c1=O (single isomer, unassigned) [Compound 44, isomer 2, 7-chloro-2-(4-((3,3-difluorocyclobutyl)amino)cyclohexyl)-2,4-dimethyl-N-((6-methyl-4-(methylthio)-2-oxo-1,2-dihydropyridin-3-yl)methyl-d2)benzo[d][1,3]dioxole-5-carboxamide]

- IC50 [1]: 0.33 nM
- Cmax [3, 6]: 1.025 µg/mL
- T1/2 [3, 6]: 1.10 h
- Tmax [3, 6]: 0.500 h
- half-life ([3]; male, ICR, mouse, plasma, iv, 5 mg/kg, IV 5 mg/kg): 1.21 h
- AUC ([3]; male, ICR, mouse, plasma, iv, 5 mg/kg, IV 5 mg/kg, read-out: AUC): 0.703 µg·h/mL
- C0 ([3]; male, ICR, mouse, plasma, iv, 5 mg/kg, IV 5 mg/kg, read-out: C0): 2.37 µg/mL
- bioavailability ([3]; male, ICR, mouse, plasma, po, 30 mg/kg, PO 30 mg/kg vs IV 5 mg/kg): 47.9%
- AUC ([3]; male, ICR, mouse, plasma, po, 30 mg/kg, PO 30 mg/kg, read-out: AUC): 2.02 µg·h/mL
Compound: [2H]C([2H])(NC(=O)c1cc(Cl)c2c(c1C)OC(C)(C1CCC(N[C@H]3C[C@H](F)C3)CC1)O2)c1c(SC)cc(C)[nH]c1=O (single isomer, unassigned) [Compound 53, isomer 1, 7-chloro-2-(4-((trans-3-fluorocyclobutyl)amino)cyclohexyl)-2,4-dimethyl-N-((6-methyl-4-(methylthio)-2-oxo-1,2-dihydropyridin-3-yl)methyl-d2)benzo[d][1,3]dioxole-5-carboxamide]

- AUC [3, 7]: 0.954 µg·h/mL
- C0 [3, 7]: 2.665 µg/mL
- T1/2 [3, 7]: 1.87 h
- F % ([3]; ICR mice, PO 30 mg/kg vs IV 5 mg/kg, listed as Compound 53, Isomer 2): 38.4%
- AUC [3, 8]: 2.201 µg·h/mL
- Cmax [3, 8]: 0.476 µg/mL
- T1/2 [3, 8]: 4.51 h
- Tmax [3, 8]: 4.00 h
Compound: [2H]C([2H])(NC(=O)c1cc(Cl)c2c(c1C)OC(C)(C1CCC(N[C@H]3C[C@H](F)C3)CC1)O2)c1c(SC)cc(C)[nH]c1=O (single isomer, unassigned) [Compound 53, isomer 2, 7-chloro-2-(4-((trans-3-fluorocyclobutyl)amino)cyclohexyl)-2,4-dimethyl-N-((6-methyl-4-(methylthio)-2-oxo-1,2-dihydropyridin-3-yl)methyl-d2)benzo[d][1,3]dioxole-5-carboxamide]
